Test results reported in patent US9982138B2, “Hair color compositions comprising stable violet-blue to blue imidazolium dyes” (Noxell Corporation, priority 2016, dated 2018).
Counter-ions that a name gives are not always drawn.

How the values were obtained:
Format in all cases: physicochemical
[1] = In-use disappearance of the dye in ammonia buffer with hydrogen peroxide (UV/visible absorbance); conditions: % loss recorded at 30 minutes in the presence of a 3% peroxide solution at pH 10.58
Experimental: Disappearance of the dye is measured on a Cary 100 UV/visible spectrophotometer. A solution of the dye in 50% aqueous ethanol at a concentration sufficient to give an absorbance of 2.0 at the dye's λmax and buffered at pH 10.6 with ammonia is mixed with an equal volume of 6% hydrogen peroxide in a 1 cm quartz cuvette. […]

[2] = Color (λmax) by UV/visible spectrophotometer
[3] = Storage stability: disappearance of the dye on storage at pH 10, 25° C. (UV/visible absorbance); conditions: % loss on 1-month storage at pH 10, 25° C.
Experimental: Disappearance of the dye is measured on a Cary 100 UV/visible spectrophotometer using a 1 cm cuvette. A solution of the dye is prepared at a concentration sufficient to give an absorbance of 0.9-1.1 at the dye's λmax when buffered at pH 10.0. The absorbance is measured after storage at 25° C. Percent disappearance is calculated as the difference between the starting absorbance (A0) and the absorbance (At) at a specific storage period divided by the starting absorbance minus the baseline absorbance (Ab), by the following equation: […]

CCN1CCN(CC)c2cc(/N=N/c3n(CCCN)cc[n+]3CCCN)ccc21.Cl.Cl.[Br-] [Compound 1, (E)-1,3-bis(3-ammoniopropyl)-2-((1,4-diethyl-1,2,3,4-tetrahydroquinoxalin-6-yl)diazenyl)-1H-imidazol-3-ium bromide dichloride]
% Disappearance (In-use) [1]: 2.0% | Color (λmax; nm) [2]: 587 nm | % Disappearance (Storage) [3]: 2.05%

CCN1CCN(CC)c2cc(/N=N/c3n(CCC[N+](C)(C)C)cc[n+]3CCC[N+](C)(C)C)ccc21 [Compound 2, (E)-2-((1,4-diethyl-1,2,3,4-tetrahydroquinoxalin-6-yl)diazenyl)-1,3-bis(3-(trimethyl-ammonio)propyl)-1H-imidazol-3-ium tribromide]
% Disappearance (In-use) [1]: 0% | Color (λmax; nm) [2]: 580 nm | % Disappearance (Storage) [3]: 0.71%

CN1CCNc2cc(/N=N/c3n(CCCN)cc[n+]3CCCN)ccc21.Cl.Cl.[Br-] [Compound 3, (E)-1,3-bis(3-ammoniopropyl)-2-((1-methyl-1,2,3,4-tetrahydroquinoxalin-6-yl)diazenyl)-1H-imidazol-3-ium bromide dichloride]
% Disappearance (In-use) [1]: 1.91% | Color (λmax; nm) [2]: 580 nm | % Disappearance (Storage) [3]: 4.55%

CCCCCN1CCN(CCCCC)c2cc(/N=N/c3n(CCCCN)cc[n+]3CCCCN)ccc21.Cl.Cl.[Br-] [Compound 4, (E)-1,3-bis(4-ammoniobutyl)-2-((1,4-dipentyl-1,2,3,4-tetrahydroquinoxalin-6-yl)diazenyl)-1H-imidazol-3-ium bromide dichloride]
% Disappearance (In-use) [1]: 1.85% | Color (λmax; nm) [2]: 599 nm | % Disappearance (Storage) [3]: 3.86%

CCCCCN1CCNc2cc(/N=N/c3n(CCCN)cc[n+]3CCCN)ccc21.Cl.Cl.[Br-] [Compound 5, (E)-1,3-bis(3-ammoniopropyl)-2-((1-pentyl-1,2,3,4-tetrahydroquinoxalin-6-yl)diazenyl)-1H-imidazol-3-ium bromide dichloride]
% Disappearance (In-use) [1]: 2.9% | Color (λmax; nm) [2]: 582 nm | % Disappearance (Storage) [3]: 3.14%

CCN1CCN(CC)c2cc(/N=N/c3n(CCC[N+](C)(C)C)cc[n+]3CCC[N+](C)(C)C)ccc21 [Compound 6]
% Disappearance (In-use) [1]: 10.86% | Color (λmax; nm) [2]: 592 nm | % Disappearance (Storage) [3]: 3.47%

C=CCN1CCN(CC=C)c2cc(/N=N/c3n(CCCCN)cc[n+]3CCCCN)ccc21 [Compound 7]
% Disappearance (In-use) [1]: 0.8% | Color (λmax; nm) [2]: 580 nm | % Disappearance (Storage) [3]: 4.79%

Cn1cc[n+](C)c1/N=N/c1cc2c3c(c1)OCCN3CCO2 [Compound 8, (E)-1,3-dimethyl-2-((2,3,4,5-tetrahydro-1,6-dioxa-3a-azaphenalen-8-yl)diazenyl)-1H-imidazol-3-ium methyl sulfate]
% Disappearance (In-use) [1]: 1.28% | Color (λmax; nm) [2]: 553 nm | % Disappearance (Storage) [3]: 1.27%

CCN1CCN(CC)c2cc(/N=N/c3n(CCCCN)cc[n+]3CCCCN)ccc21 [Compound 9]
% Disappearance (In-use) [1]: 1.85% | Color (λmax; nm) [2]: 587 nm | % Disappearance (Storage) [3]: 3.37%
